Where only a bound is given, the exact number is not on record here.

Data on two compounds can be found in patent US20230012172A1, “COMPOSITIONS AND METHODS FOR TREATMENT OF PLATINUM-BASED CHEMOTHERAPEUTIC RESISTANT TUMORS” (The George Washington University, priority 2020, published 2023).

In assay [1] the test system is SKOV3 CR cells. The assay is described as follows: Cell viability assay (SRB) in SKOV3 CR cells. The class given is cell-based. The conditions noted are these: SKOV3 CR cells. As for the experimental part: Cell culture and resistance cell line establishment. IGROV1 cells, U2OS (HTB-96; ATCC), HEK293T (CRL-11268; ATCC) and SKOV3 cells (HTB-77; ATCC) were cultured at 37° C. in DMEM with 10% Fetal Bovine Serum (FBS). PEO1 (10032308; Sigma-Aldrich), PEO4 (10032309; Sigma-Aldrich), PEO14 (10032311; […] Sigma-Aldrich) were cultured at 37° C. in RPMI-1640 with 10% FBS. OV90 (CRL-11732; […] All the cells were cultured at in a humidified incubator with 5% CO2 atmosphere. Cisplatin resistant cell lines, including SKOV3 CR, IGROV1 CR and OV90 CR, were generated using an approach similar to that reported in Zhou et al., (2018) Oncogene 37, 3981-3997, the disclosure of which is incorporated herein in its entirety. Cell viability assay. Cells were seeded at 3,000 cells/well in 96-well plates were treated with drugs, followed by incubation for 48 hours, after which cell viability was detected using Sulforhodamine B (SRB) assay (64). Absorbance at 510 nm was detected using a SpectraMax Reader (Molecular Devices) and analyzed with SoftMax Analysis Software (Molecular Devices). Combinational index (CI) values were calculated using CompuSyn software.

In assay [2] the test system is IGROV1 CR cells. The assay is described as follows: Cell viability assay (SRB) in IGROV1 CR cells. In kind it is cell-based, human. The conditions noted are these: 150 nM UA, IGROV1 CR cells. As to the method:
Cell culture and resistance cell line establishment. IGROV1 cells, U2OS (HTB-96; ATCC), HEK293T (CRL-11268; ATCC) and SKOV3 cells (HTB-77; ATCC) were cultured at 37° C. in DMEM with 10% Fetal Bovine Serum (FBS). PEO1 (10032308; Sigma-Aldrich), PEO4 (10032309; Sigma-Aldrich), PEO14 (10032311; Sigma-Aldrich) and PE023 cells (10032313; Sigma-Aldrich) were cultured at 37° C. in RPMI-1640 with 10% FBS. OV90 (CRL-11732; ATCC) was cultured in medium containing 1:1 MCDB 105 (Sigma) and M199 (Sigma) supplemented with 10% FBS at 37 ° C. All the cells were cultured at in a humidified incubator with 5% CO2 atmosphere. Cisplatin resistant cell lines, including SKOV3 CR, IGROV1 CR and OV90 CR, were generated using an approach similar to that reported in Zhou et al., (2018) Oncogene 37, 3981-3997, the disclosure of which is incorporated herein in its entirety.
Cell viability assay. Cells were seeded at 3,000 cells/well in 96-well plates were treated with drugs, followed by incubation for 48 hours, after which cell viability was detected using Sulforhodamine B (SRB) assay (64). Absorbance at 510 nm was detected using a SpectraMax Reader (Molecular Devices) and analyzed with SoftMax Analysis Software (Molecular Devices). Combinational index (CI) values were calculated using CompuSyn software.

The subject of assay [3] is IGROV1 CR cells. Nature of the assay: IGROV1 CR xenograft in nude mice. The conditions noted are these: IGROV1 CR xenograft tumors. In kind it is in vivo. As to the method: To further evaluate the therapeutic potential of UA in combination with cisplatin in vivo, IGROV1 CR cells were subcutaneously implanted into nude mice to form platinum drug resistant ovarian tumors. The mice with these tumors were then treated with UA, cisplatin, or combination of both via intraperitoneal injection.
Animal experiments. Xenograft experiments were performed in 6-week female BALB/c athymic nude mice (Jackson Laboratory) by subcutaneously injecting 5×10^6 IGROV1 CR cells within 50% Matrigel gelatinous protein mixture (Corning). Mice were randomized to receive treatment after reached a minimum tumor volume of 150 mm^3. 4 groups of mice (5 mice per group) were treated intraperitoneally with vehicle, cisplatin (8 mg/kg/2day), UA (10 mg/kg/2 days) and combination of UA and cisplatin (10 mg/kg/2 day of UA +8 mg/kg/2 day of cisplatin) for 2 weeks. A minimum of 6 tumors per group were assessed. The tumor volume was calculated according to the formula: length×(width^2)/2.
Immunohistochemistry. Immunohistochemical (IHC) staining and scoring were performed similar to that previously described n Zhou et al., (2018) Oncogene 37, 3981-3997, the disclosure of which is incorporated herein in its entirety. The quantification of immunohistochemical staining was scored blindly at least by two independent observers.

For the compound `CC1(C)CC[C@]2(C(=O)O)CC[C@]3(C)C(=CC[C@@H]4[C@@]5(C)CC[C@H](O[C@@H]6O[C@H](C(=O)O)[C@@H](O)[C@H](O[C@@H]7OC[C@@H](O)[C@H](O)[C@H]7O)[C@H]6O)C(C)(C)[C@@H]5CC[C@]43C)[C@@H]2C1` [Mc, Momordin Ic], in assay [1], the re-sensitization to cisplatin entry is on record as “re-sensitized” and the “synergistic effects with cisplatin (combination index)” value was “synergy”.
For `C[C@H]1[C@H](C)CC[C@]2(C(=O)O)CC[C@]3(C)C(=CC[C@@H]4[C@@]5(C)CC[C@H](O)C(C)(C)[C@@H]5CC[C@]43C)[C@H]12` [UA, ursolic acid], the “CI value with cisplatin, cell survival” value in assay [2] is reported as less than 1. Also, the “expression of pSTAT3 in tumor samples (IHC)” value in assay [3] is on record as “suppressed”.
